Assay results from patent US20230167073A1 (Teijin Pharma Limited, priority 2020, published 2023).

Target: T1, Human TRPC6 (Homo sapiens, UniProt Q9Y210)
T1 construct: expressed in transfected cells
T1 sequence (Q9Y210 1-931): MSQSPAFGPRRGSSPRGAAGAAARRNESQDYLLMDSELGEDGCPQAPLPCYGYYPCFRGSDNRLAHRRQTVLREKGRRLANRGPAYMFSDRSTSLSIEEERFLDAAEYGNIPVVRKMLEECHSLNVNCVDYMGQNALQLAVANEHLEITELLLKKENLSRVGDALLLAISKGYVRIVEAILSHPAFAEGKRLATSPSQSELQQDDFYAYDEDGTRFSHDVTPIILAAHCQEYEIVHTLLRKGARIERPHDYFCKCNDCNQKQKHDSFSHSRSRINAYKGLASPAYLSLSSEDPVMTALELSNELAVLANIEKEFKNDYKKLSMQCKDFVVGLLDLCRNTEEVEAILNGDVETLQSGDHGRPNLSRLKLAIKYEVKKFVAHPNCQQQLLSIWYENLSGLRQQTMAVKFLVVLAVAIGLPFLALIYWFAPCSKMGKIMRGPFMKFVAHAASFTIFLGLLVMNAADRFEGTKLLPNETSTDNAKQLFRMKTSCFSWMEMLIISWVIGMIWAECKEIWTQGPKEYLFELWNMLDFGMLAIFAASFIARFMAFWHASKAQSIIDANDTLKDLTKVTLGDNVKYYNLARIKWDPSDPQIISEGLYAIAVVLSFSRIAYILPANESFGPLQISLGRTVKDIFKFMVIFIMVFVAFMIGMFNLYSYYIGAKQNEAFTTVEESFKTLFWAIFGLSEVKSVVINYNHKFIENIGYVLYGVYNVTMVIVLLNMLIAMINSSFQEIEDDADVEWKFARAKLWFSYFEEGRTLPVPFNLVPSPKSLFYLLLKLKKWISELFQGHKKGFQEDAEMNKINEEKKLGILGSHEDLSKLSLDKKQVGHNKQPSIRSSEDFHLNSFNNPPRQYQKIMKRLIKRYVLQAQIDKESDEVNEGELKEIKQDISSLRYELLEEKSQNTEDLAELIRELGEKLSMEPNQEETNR
Assay: Evaluation of TRPC6 channel inhibitory activity (1), FLIPR Calcium 5 Assay Kit, OAG stimulation (Compound Nos. 1-1293)
Format: cell-based
Conditions: Human TRPC6 stably-expressing cells, OAG 30 μM, FLIPR Calcium 5 Assay Kit; read-out: Inhibitory activity (pIC50 class) (converted)
Outline: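 Cells stably expressing human TRPC6, plated 24 h before, were loaded 30 min with Calcium 5 dye plus probenecid in HEPES-HBSS. Compound was added 20 min before OAG (30 μM final) and fluorescence tracked on FLIPR. Inhibition normalised to no-compound and no-compound/no-OAG wells; pIC50 from four-parameter fit, reported as +/++/+++ categories.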

IC50 [nM]	Structure (SMILES)
< 10	CC(C)Cn1cc(Oc2cc(C#N)ccc2-c2ncc(CN)cn2)cn1 [compound 908, 4-[5-(aminomethyl)pyrimidin-2-yl]-3-[1-(2-methylpropyl)pyrazol-4-yl]oxybenzonitrile]
< 10	CCN(CC(F)F)c1cc(Oc2cc(F)ccc2-c2ccc(CCN)cn2)n(C)n1 [compound 990, 5-[2-[5-(2-aminoethyl)pyridin-2-yl]-5-fluorophenoxy]-N-(2,2-difluoroethyl)-N-ethyl-1-methylpyrazole-3-amine]
> 1000	Cc1cc(Oc2cc(C#N)ccc2-c2ncc(CCN)cn2)cc(N2CCNC(=O)C2)n1 [compound 455, 4-[5-(2-aminoethyl)pyrimidin-2-yl]-3-[2-methyl-6-(3-oxopiperazin-1-yl)pyridin-4-yl]oxybenzonitrile]
> 1000	N#Cc1ccc(-c2ncc(CN)cn2)c(Oc2cc(N3CCCC3)ncc2C#N)c1 [compound 740, 4-[2-[5-(aminomethyl)pyrimidin-2-yl]-5-cyanophenoxy]-6-pyrrolidin-1-ylpyridine-3-carbonitrile]
10 to 1000	Cc1nc(Oc2cc(C#N)ccc2-c2ncc(CN)cn2)cc(N(C)C(C)C)n1 [compound 792, 4-[5-(aminomethyl)pyrimidin-2-yl]-3-[2-methyl-6-[methyl(propan-2-yl)amino]pyrimidin-4-yl]oxybenzonitrile]
10 to 1000	Cc1c(Oc2cc(F)ccc2-c2ncc(CCN)cn2)cnn1CC(C)C [Compound No. 967, 2-[2-[4-fluoro-2-[5-methyl-1-(2-methylpropyl)pyrazol-4-yl]oxyphenyl]pyrimidin-5-yl]ethanamine]
< 10	Cc1nn(CC2CC2)cc1C(=O)c1cc(C#N)ccc1-c1ncc(CCN)cn1 [compound 1033, 4-[5-(2-aminoethyl)pyrimidin-2-yl]-3-[1-(cyclopropylmethyl)-3-methylpyrazole-4-carbonyl]benzonitrile]
10 to 1000	Cc1nc(Oc2cc(C#N)ccc2-c2ncc(CN)cn2)cc(N2CCC[C@H]2C)n1 [compound 794, 4-[5-(aminomethyl)pyrimidin-2-yl]-3-[2-methyl-6-[(2R)-2-methylpyrrolidin-1-yl]pyrimidin-4-yl]oxybenzonitrile]
10 to 1000	Cn1nc(-c2ncccc2F)cc1Oc1cc(C#N)ccc1-c1ncc(CN)cn1 [compound 649, 4-[5-(aminomethyl)pyrimidin-2-yl]-3-[5-(3-fluoropyridin-2-yl)-2-methylpyrazol-3-yl]oxybenzonitrile]
10 to 1000	Cc1c(Oc2cc(F)ccc2-c2ncc(CCN)cn2)cnn1CC(C)(C)C [compound 986, 2-[2-[2-[1-(2,2-dimethylpropyl)-5-methylpyrazol-4-yl]oxy-4-fluorophenyl]pyrimidin-5-yl]ethanamine]
< 10	N#Cc1ccc(-c2ncc(CCN)cn2)c(Oc2nnc(-c3ccccc3)s2)c1 [compound 706, 4-[5-(2-aminoethyl)pyrimidin-2-yl]-3-[(5-phenyl-1,3,4-thiadiazol-2-yl)oxy]benzonitrile]

Second part, the molecule before the results:

Structure (SMILES)	IC50 [nM]
Cc1cc(C(=O)c2cc(C#N)ccc2-c2ncc(CN)cn2)cc(N2CCOCC2)n1 [compound 1049, 4-[5-(aminomethyl)pyrimidin-2-yl]-3-(2-methyl-6-morpholin-4-ylpyridine-4-carbonyl)benzonitrile]	< 10
N#Cc1ccc(-c2ccc(CCN)nc2)c(Oc2cnnc(-c3ccccc3)c2)c1 [Compound 102, 4-[6-(2-aminoethyl)pyridin-3-yl]-3-(6-phenylpyridazin-4-yl)oxybenzonitrile]	10 to 1000
Cc1ccc(-c2cc(Oc3cc(C#N)ccc3-c3ccc(C(O)CN)cc3)n(C)n2)nc1 (stereo not shown) [Compound 180, 4-[4-(2-amino-1-hydroxyethyl)phenyl]-3-[2-methyl-5-(5-methylpyridin-2-yl)pyrazol-3-yl]oxybenzonitrile]	< 10
Cn1nc(C2CC2)cc1Oc1cc(C#N)ccc1-c1cc(C(=O)N2CCC[C@@H](N)C2)cn2ccnc12 [compound 757, 4-[6-[(3R)-3-aminopiperidine-1-carbonyl]imidazo[1,2-a]pyridin-8-yl]-3-(5-cyclopropyl-2-methylpyrazol-3-yl)oxybenzonitrile]	> 1000
Cc1nc(Oc2cc(C#N)ccc2-n2cc(CN)cn2)cc(N2CCOCC2)n1 [compound 298, 4-[4-(aminomethyl)pyrazol-1-yl]-3-(2-methyl-6-morpholin-4-ylpyrimidin-4-yl)oxybenzonitrile]	10 to 1000
Cc1nc(-c2ccccc2)cn1Cc1cc(C#N)ccc1-c1ccc(CCN)cc1 [compound 1120, 4-[4-(2-aminoethyl)phenyl]-3-[(2-methyl-4-phenylimidazol-1-yl)methyl]benzonitrile]	< 10
Cc1nc(C(=O)c2cc(F)ccc2-c2ncc(CN)cn2)cc(N2CCOCC2)n1 [compound 1104, [2-[5-(aminomethyl)pyrimidin-2-yl]-5-fluorophenyl]-(2-methyl-6-morpholin-4-ylpyrimidin-4-yl)methanone]	> 1000
N#Cc1ccc(-c2ncc(CN)cn2)c(Oc2ccc(N3CCCC3)nc2)c1 [compound 751, 4-[5-(aminomethyl)pyrimidin-2-yl]-3-(6-pyrrolidin-1-ylpyridin-3-yl)oxybenzonitrile]	> 1000
Cc1nc(Oc2cc(C#N)ccc2-c2ncc(CN)cn2)cc(OC2CCC2)n1 [compound 788, 4-[5-(aminomethyl)pyrimidin-2-yl]-3-(6-cyclobutyloxy-2-methylpyrimidin-4-yl)oxybenzonitrile]	> 1000
N#Cc1ccc(-c2ncc(CN)cn2)c(Cn2cc(C3CC3)nn2)c1 [compound 1191, 4-[5-(aminomethyl)pyrimidin-2-yl]-3-[(4-cyclopropyltriazol-1-yl)methyl]benzonitrile]	10 to 1000
N#Cc1ccc(-c2ccc(CN)cn2)c(C(=O)c2cnc(N3CCOCC3)o2)c1 [compound 1085, 4-[5-(aminomethyl)pyridin-2-yl]-3-(2-morpholin-4-yl-1,3-oxazole-5-carbonyl)benzonitrile]	10 to 1000
Cc1cc(Oc2cc(C#N)ccc2-c2ccc([C@@H](O)CN)cn2)cc(N2CCOCC2)n1 [compound 517, 4-[5-[(1R)-2-amino-1-hydroxyethyl]pyridin-2-yl]-3-(2-methyl-6-morpholin-4-ylpyridin-4-yl)oxybenzonitrile]	< 10
N#Cc1ccc(-c2ccc(C(N)C(=O)O)cn2)c(Oc2cnnc(-c3ccccc3)c2)c1 (stereo not shown) [compound 433, 2-amino-2-[6-[4-cyano-2-(6-phenylpyridazin-4-yl)oxyphenyl]pyridin-3-yl]acetic acid]	10 to 1000
N#Cc1ccc(-c2ccc(CN)cn2)c(Sc2cnnc(N3CCCC3)c2)c1 [compound 1264, 4-[5-(aminomethyl)pyridin-2-yl]-3-(6-pyrrolidin-1-ylpyridazin-4-yl)sulfanylbenzonitrile]	10 to 1000
CN(C(=O)C1CCNCC1)c1ccc(-c2ccc(C#N)cc2Oc2cc(C3CC3)nn2C)nc1 [compound 782, N-[6-[4-cyano-2-(5-cyclopropyl-2-methylpyrazol-3-yl)oxyphenyl]pyridin-3-yl]-N-methylpiperidine-4-carboxamide]	> 1000
Cn1nc(C2CC2)cc1Oc1cc(C#N)ccc1-c1cccn2c(C3CNC3)nnc12 [compound 571, 4-[3-(azetidin-3-yl)-[1,2,4]triazolo[4,3-a]pyridin-8-yl]-3-(5-cyclopropyl-2-methylpyrazol-3-yl)oxybenzonitrile]	> 1000
Cn1nc(C2CC2)cc1Oc1cc(C#N)ccc1-c1cc(C(O)CN)c(Cl)cn1 (stereo not shown) [compound 518, 4-[4-(2-amino-1-hydroxyethyl)-5-chloropyridin-2-yl]-3-(5-cyclopropyl-2-methylpyrazol-3-yl)oxybenzonitrile]	10 to 1000
Cn1nc(-c2ccccc2O)cc1Oc1cc(C#N)ccc1-c1ccc(C(O)CN)cn1 (stereo not shown) [compound 321, 4-[5-(2-amino-1-hydroxyethyl)pyridin-2-yl]-3-[5-(2-hydroxyphenyl)-2-methylpyrazol-3-yl]oxybenzonitrile]	< 10
Cc1nc(Oc2cc(C#N)ccc2-n2cc3c(n2)CCNC3)cc(N2CCCCC2)n1 [compound 744, 3-(2-methyl-6-piperidin-1-ylpyrimidin-4-yl)oxy-4-(4,5,6,7-tetrahydropyrazolo[4,3-c]pyridin-2-yl)benzonitrile]	10 to 1000
Cn1nc(C2CC2)cc1Oc1cc(C#N)ccc1-c1ncc(CN)o1 [compound 584, 4-[5-(aminomethyl)-1,3-oxazol-2-yl]-3-(5-cyclopropyl-2-methylpyrazol-3-yl)oxybenzonitrile]	> 1000
